Peptide text beside a SMILES is read from it. * marks the point of attachment. Dansyl = CN(C)c1cccc2c(S(=O)(=O)*)cccc12
Legend:
[1] = test system: P100 membrane fractions derived from Caco-2 cells; assay: Dansylated peptide ELISA: relative binding of PAX2 and HAX42 peptides to P100 (ratio to ZElan021); conditions: ratio to ZElan021 = 1.00
Description: The peptides and proteins were analyzed by a dansylated peptide ELISA method in which 96 well plates were coated overnight at 4° C. with 100 μl/well coating protein (normally 100 μg/ml P100 membrane fraction) in 0.05M carbonate buffer pH9.6. Nonspecific binding was blocked using 200 μl/well, 2% Marvel/PBS for 2 hours at 37° C. prior to incubation with dansylated peptides. The plates were washed three times with PBS/0.05% Tween 20 and after each subsequent incubation step. […] A buffer blank control was included to ensure that background binding to plastic was not due to the antibodies used in the assay system. […] The plates were then incubated with an anti-mouse X-HRP conjugated antibody (Southern Biotech 1060-05) at a 1:10,000 dilution in blocking solution, 100 μl/well for 1 hour at room temperature. Plates were developed using 75 μl/well Bionostics TMB substrate and incubated for approximately 10 minutes. The developing reaction was stopped using Bionostics Red Stop solution (25 μl/well), and the optical density of the plates was read at 650nm.

fixed Caco-2 cells = assay: Inhibition of GST-peptide fusion binding to fixed Caco-2 cells by synthetic peptides; conditions: peptide from 100 μg/ml serially diluted; GST fusion 10 μg
Excerpt: Caco-2 cells were fixed, treated with phenylhydrazine and blocked as described above. […] GST-PAX2 binding was inhibited by ZElan032, ZElan033, and ZElan035.

[2] = PAX2 peptides, first 20 μg/ml column
[3] = PAX2 peptides, first 50 μg/ml column
[4] = PAX2 peptides, second 20 μg/ml column
[5] = PAX2 peptides, second 50 μg/ml column
[6] = HAX42 peptides, first 50 μg/ml column
[7] = HAX42 peptides, second 50 μg/ml column

Molecule: CC(C)C[C@H](NC(=O)[C@H](CCCNC(=N)N)NC(=O)[C@H](CCCNC(=N)N)NC(=O)[C@H](CC(N)=O)NC(=O)[C@H](Cc1c[nH]cn1)NC(=O)[C@H](CO)NC(=O)[C@H](CO)NC(=O)[C@H](Cc1c[nH]cn1)NC(=O)[C@H](CCCCN)NC(=O)[C@H](C)NC(=O)[C@H](CC(N)=O)NC(=O)[C@@H](NC(=O)[C@@H](N)CCCCNS(=O)(=O)c1cccc2c(N(C)C)cccc12)[C@@H](C)O)C(=O)N[C@@H](CCCNC(=N)N)C(=O)N[C@H](C(=O)N[C@@H](CCCNC(=N)N)C(=O)N[C@@H](CO)C(=O)N[C@@H](CCCNC(=N)N)C(=O)N1CCC[C@H]1C(=O)N[C@@H](CC(N)=O)C(N)=O)[C@@H](C)O [ZElan032] (H-K(Dansyl)TNAKHSSHNRRLRTRSRPN-NH2)
- Binding value at 20 μg/ml [1, 2]: 1.43
- Binding value at 50 μg/ml [1, 3]: 0.95
- Binding value at 20 μg/ml [1, 4]: 2.87
- Binding value at 50 μg/ml [1, 5]: 1.06
- inhibition of GST-PAX2 binding (fixed Caco-2 cells): inhibited

Molecule: H-K(Dansyl)SRANTDGRKSRYSSPRRNSSTEPRLSPNSVHARYPSTDHD-NH2 [ZElan038, reference compound]
- inhibition of GST-HAX42 binding (fixed Caco-2 cells): inhibited

Molecule: H-K(Dansyl)SEANLDGRKSRYSSPRRNSSTRPRTSPNSVHARYPSTDHD-NH2 [ZElan026, reference compound]
- inhibition of GST-HAX42 binding (fixed Caco-2 cells): inhibited

Molecule: H-K(Dansyl)SARDSGPAEDGSRAVRLNGVENANTRKSSRSNPRGRRHPGG-NH2 [ZElan024]
- inhibition of GST-P31 binding (fixed Caco-2 cells): inhibited

Molecule: C[C@H](NC(=O)[C@H](CC(N)=O)NC(=O)[C@H](CCC(=O)O)NC(=O)[C@@H](N)CCCCNS(=O)(=O)c1cccc2c(N(C)C)cccc12)C(=O)N[C@@H](CC(N)=O)C(=O)N[C@H](C(=O)N[C@@H](CCCNC(=N)N)C(=O)N[C@@H](CCCCN)C(=O)N[C@@H](CO)C(=O)N[C@@H](CO)C(=O)N[C@@H](CCCNC(=N)N)C(=O)N[C@@H](CO)C(=O)N[C@@H](CC(N)=O)C(=O)N1CCC[C@H]1C(=O)N[C@@H](CCCNC(=N)N)C(=O)NCC(=O)N[C@@H](CCCNC(=N)N)C(=O)N[C@@H](CCCNC(=N)N)C(=O)N[C@@H](Cc1c[nH]cn1)C(=O)N1CCC[C@H]1C(=O)NCC(N)=O)[C@@H](C)O [ZElan028] (H-K(Dansyl)ENANTRKSSRSNPRGRRHPG-NH2)
- inhibition of GST-P31 binding (fixed Caco-2 cells): inhibited

Molecule: CC(C)C[C@H](NC(=O)[C@H](C)NC(=O)[C@H](Cc1c[nH]cn1)NC(=O)[C@H](CC(=O)O)NC(=O)[C@H](CO)NC(=O)[C@@H](N)CCCCNS(=O)(=O)c1cccc2c(N(C)C)cccc12)C(=O)NCC(=O)N[C@H](C(=O)N[C@@H](CC(N)=O)C(=O)N[C@@H](CC(C)C)C(=O)N[C@@H](CCCNC(=N)N)C(=O)N[C@@H](CO)C(=O)N[C@@H](CC(=O)O)C(=O)N[C@@H](CC(N)=O)C(=O)N[C@@H](C)C(=O)N[C@@H](CCCCN)C(=O)N[C@@H](CCC(=O)O)C(=O)N1CCC[C@H]1C(=O)NCC(=O)N[C@@H](CC(=O)O)C(=O)N[C@@H](Cc1ccc(O)cc1)C(=O)N[C@@H](CC(N)=O)C(=O)N[C@@H](CS)C(=O)N[C@@H](CS)C(=O)NCC(=O)N[C@@H](CC(N)=O)C(=O)NCC(N)=O)[C@@H](C)O [ZElan060] (H-K(Dansyl)SDHALGTNLRSDNAKEPGDYNCCGNG-NH2)
- Binding value at 20 μg/ml ([1]; HAX42 peptides): 0.44
- Binding value at 50 μg/ml [1, 6]: 0.56
- Binding value at 50 μg/ml [1, 7]: 0.43

Molecule: CC[C@H](C)[C@H](NC(=O)[C@H](C)NC(=O)[C@H](CO)NC(=O)[C@@H]1CCCN1C(=O)[C@H](CCCNC(=N)N)NC(=O)[C@H](CCCNC(=N)N)NC(=O)[C@H](CC(N)=O)NC(=O)[C@H](Cc1ccccc1)NC(=O)[C@@H](NC(=O)[C@H](CCCCN)NC(=O)[C@H](CCCNC(=N)N)NC(=O)CNC(=O)[C@@H](NC(=O)[C@H](CO)NC(=O)[C@H](CC(N)=O)NC(=O)CNC(=O)[C@H](CC(N)=O)NC(=O)CNC(=O)[C@H](CS)NC(=O)[C@H](CS)NC(=O)[C@H](CC(N)=O)NC(=O)[C@H](Cc1ccc(O)cc1)NC(=O)[C@H](CC(=O)O)NC(=O)CNC(=O)[C@@H]1CCCN1C(=O)[C@@H](N)CCCCNS(=O)(=O)c1cccc2c(N(C)C)cccc12)[C@@H](C)O)C(C)C)C(=O)N1CCC[C@H]1C(=O)N[C@H](C(N)=O)[C@@H](C)O [ZElan072] (H-K(Dansyl)PGDYNCCGNGNSTGRKVFNRRPSAIPT-NH2)
- Binding value at 20 μg/ml ([1]; HAX42 peptides): 0.83
- Binding value at 50 μg/ml [1, 6]: 0.61
- Binding value at 50 μg/ml [1, 7]: 0.88

Molecule: CC(C)C[C@H](NC(=O)[C@H](CCCNC(=N)N)NC(=O)[C@H](CCCNC(=N)N)NC(=O)[C@H](CC(N)=O)NC(=O)[C@H](Cc1c[nH]cn1)NC(=O)[C@H](CO)NC(=O)[C@H](CO)NC(=O)[C@@H](N)CCCCNS(=O)(=O)c1cccc2c(N(C)C)cccc12)C(=O)N[C@@H](CCCNC(=N)N)C(=O)N[C@@H](C)C(=O)N[C@@H](CCCNC(=N)N)C(N)=O [ZElan081] (H-K(Dansyl)SSHNRRLRAR-NH2)
- Binding value at 20 μg/ml [1, 2]: 0.01
- Binding value at 50 μg/ml [1, 3]: 0.89
- Binding value at 50 μg/ml [1, 5]: 0.47

Molecule: CC(C)C[C@H](NC(=O)[C@H](C)NC(=O)[C@H](Cc1c[nH]cn1)NC(=O)[C@H](CC(=O)O)NC(=O)[C@H](CO)NC(=O)[C@@H](N)CCCCNS(=O)(=O)c1cccc2c(N(C)C)cccc12)C(=O)NCC(=O)N[C@H](C(=O)N[C@@H](CC(N)=O)C(=O)N[C@@H](CC(C)C)C(=O)N[C@@H](CCCNC(=N)N)C(=O)N[C@@H](CO)C(=O)N[C@@H](CC(=O)O)C(=O)N[C@@H](CC(N)=O)C(=O)N[C@@H](C)C(=O)N[C@@H](CCCCN)C(=O)N[C@@H](CCC(=O)O)C(=O)N1CCC[C@H]1C(=O)NCC(N)=O)[C@@H](C)O [ZElan062] (H-K(Dansyl)SDHALGTNLRSDNAKEPG-NH2)
- Binding value at 20 μg/ml ([1]; HAX42 peptides): 0.11
- Binding value at 50 μg/ml [1, 6]: 0.42
- Binding value at 50 μg/ml [1, 7]: 0.34

Molecule: CC[C@H](C)[C@H](NC(=O)[C@H](C)NC(=O)[C@H](CO)NC(=O)[C@@H]1CCCN1C(=O)[C@H](CCCNC(=N)N)NC(=O)[C@H](CCCNC(=N)N)NC(=O)[C@H](CCCNC(=N)N)NC(=O)[C@H](CC(N)=O)NC(=O)[C@H](Cc1ccccc1)NC(=O)[C@@H](NC(=O)[C@H](CCCCN)NC(=O)[C@H](CCCNC(=N)N)NC(=O)CNC(=O)[C@@H](NC(=O)[C@H](CO)NC(=O)[C@H](CC(N)=O)NC(=O)CNC(=O)[C@H](CC(N)=O)NC(=O)CNC(=O)[C@H](CS)NC(=O)[C@H](CS)NC(=O)[C@H](CC(N)=O)NC(=O)[C@H](Cc1ccc(O)cc1)NC(=O)[C@H](CC(=O)O)NC(=O)CNC(=O)[C@@H](N)CCCCNS(=O)(=O)c1cccc2c(N(C)C)cccc12)[C@@H](C)O)C(C)C)C(=O)N1CCC[C@H]1C(=O)N[C@H](C(N)=O)[C@@H](C)O [ZElan061] (H-K(Dansyl)GDYNCCGNGNSTGRKVFNRRRPSAIPT-NH2)
- Binding value at 20 μg/ml ([1]; HAX42 peptides): 0.20
- Binding value at 50 μg/ml [1, 6]: 0.60
- Binding value at 50 μg/ml [1, 7]: 0.38

Molecule: C[C@@H](O)[C@H](NC(=O)[C@H](CO)NC(=O)[C@H](CC(N)=O)NC(=O)CNC(=O)[C@H](CC(N)=O)NC(=O)CNC(=O)[C@H](CS)NC(=O)[C@H](CS)NC(=O)[C@H](CC(N)=O)NC(=O)[C@H](Cc1ccc(O)cc1)NC(=O)[C@H](CC(=O)O)NC(=O)CNC(=O)[C@@H]1CCCN1C(=O)[C@H](CCC(=O)O)NC(=O)[C@@H](N)CCCCNS(=O)(=O)c1cccc2c(N(C)C)cccc12)C(=O)NCC(=O)O [ZElan090] (H-K(Dansyl)EPGDYNCCGNGNSTG-OH; C-terminus assumed)
- Binding value at 25 μg/ml ([1]; HAX42 peptides, first 25 μg/ml column): 2.06
- Binding value at 25 μg/ml ([1]; HAX42 peptides, second 25 μg/ml column): 1.54
- Binding value at 25 μg/ml ([1]; HAX42 peptides, third 25 μg/ml column): 2.16

Molecule: CC(C)C[C@H](NC(=O)[C@H](CCCNC(=N)N)NC(=O)[C@H](CO)NC(=O)[C@@H](NC(=O)[C@H](CCCCN)NC(=O)[C@H](CC(N)=O)NC(=O)[C@H](CCCNC(=N)N)NC(=O)[C@@H](NC(=O)[C@H](CC(N)=O)NC(=O)[C@H](CCCNC(=N)N)NC(=O)[C@@H](N)CCCCNS(=O)(=O)c1cccc2c(N(C)C)cccc12)[C@@H](C)O)[C@@H](C)O)C(=O)N[C@@H](CO)C(=O)N[C@@H](C)C(=O)N[C@@H](CC(N)=O)C(=O)N1CCC[C@H]1C(=O)N[C@@H](Cc1c[nH]cn1)C(=O)N[C@@H](CCCNC(=N)N)C(=O)N[C@@H](CO)C(=O)N[C@@H](Cc1c[nH]cn1)C(=O)N[C@@H](CCCNC(=N)N)C(N)=O [ZElan084, reference compound] (H-K(Dansyl)RNTRNKTSRLSANPHRSHR-NH2)
- Binding value at 20 μg/ml [1, 2]: 1.06
- Binding value at 50 μg/ml [1, 3]: 1.16
- Binding value at 20 μg/ml [1, 4]: 0.93
- Binding value at 50 μg/ml [1, 5]: 0.77
